# Assay results reported in patent US12121514B2, “Nonselective metabotropic glutamate receptor activators for treatment of attention deficit disorder and 22Q syndrome” (THE CHILDREN'S HOSPITAL OF PHILADELPHIA, priority 2015, dated 2024).
# Test system: adolescent subjects with ADHD and at least one genetic alteration in an mGluR network gene
# Assay: Vanderbilt ADHD score (items 1-18, parent), Phase Ib trial of NFC-1
# Type: in vivo, human
# Details: relative to pre-study (enrollment) baseline
# From the text: The Vanderbilt Rating Scale is a measure that can be completed by parents or teachers (separate forms, see Vanderbilt Rating Scale Parents and Vanderbilt Rating Scale Teachers). The Vanderbilt scale rates the child's behavior on items such as attention, finishing tasks, hyperactivity, difficulty waiting, and measures of conduct or oppositional defiant disorders—as well as measures of overall school performance and interactions with others. The first 18 items on the Vanderbilt scale correspond to those of the ADHD Rating Scale IV above while the Vanderbilt scale also includes items 19-47 related to other mental disorders including ODD (items 19-26), conduct disorder (items 27-40), anxiety (items 41, 42, and 47), and depression (items 43-46). Each of the behavioral assessment items on the Vanderbilt Scale are rated 0, 1, 2, or 3, with 0=never occurring; 1=occasionally, 2=often, and 3=very often. Thus, the ADHD Rating Scale IV, ADHD Rating Scale V, and items 1-18 of the Vanderbilt Rating Scale are equivalent scales, while additional items on the Vanderbilt Scale assess co-morbid phenotypes and disorders.
# Each of the items are rated on a scale of 0, 1, 2, or 3, with 0=never; 1=occasionally, 2=often, and 3=very often. A total score of 0 to 54 is computed based on the answers to the 18 questions.
# As used herein an “ADHD rating scale score,” “ADHD score” or “Vanderbilt ADHD score” are used interchangeably to refer to the computed score of the 18 items of the ADHD Rating Scale IV or V or the first 18 items of the Vanderbilt Rating Scale in any of their associated versions, e.g., for parent, teacher, or clinician to complete, and for a pediatric subject or adult subject. Clinical trials may assess the impact of drug or placebo on the ADHD score or Vanderbilt ADHD score (i.e. the score of 0 to 54 based on the first 18 items in the ADHD or Vanderbilt rating scale). In some cases, results of a clinical trial population may be analyzed by comparing the average score or a percentage change in score over time of administration of drug.
# An open-label Phase Ib clinical trial was initiated to investigate the safety, pharmacokinetics and efficacy of NFC-1 (fasoracetam monohydrate) in adolescent subjects between the ages of 12 and 17 previously diagnosed with ADHD who also had at least one genetic alteration in an mGluR network gene.
# Dose-escalation phase of the trial followed the PK and initial safety assessment and ran over a 5-week period. During week 1, all subjects were administered placebo capsules twice daily. After one week of placebo treatment, patients were started on 50 mg bid NFC-1 for 1 week. If safety and responsiveness data from prior dose level of fasoracetam indicated it was appropriate, subjects were then escalated to the next higher dose (100, 200, or 400 mg). […] Of the 30 trial subjects, 3 received a maximum dose of 100 mg, 9 received a maximum dose of 200 mg, and the remaining 18 received a maximum dose of 400 mg.
# All efficacy assessments, except actigraphy, were made at study enrollment (“enrollment baseline”) and again, including actigraphy, once-per-week for the placebo week (“week 1” or “placebo baseline”) and at each of the 4 weeks of NFC-1 treatment. These efficacy measures include items 1-18 of the Vanderbilt scale assessing symptoms related to inattentiveness and hyperactivity-impulsiveness as well as additional questions 19-47 of the Vanderbilt scale assessing other behavioral symptoms (conducted by parent), actigraphy for quantitative measurement of activity, Quotient® ADHD test for objective measurement of micro-motion and shifts in attention state, PERMP-Math test, and CGI-I and CGI-S for assessment of global functioning. […]
# [1] = Tier 1, Week 5, up to 400 mg bid
# [2] = Tier 2, Week 3, up to 100 mg bid
# [3] = Tier 2, Week 4, up to 200 mg bid
# [4] = Tier 2, Week 5, up to 400 mg bid
# [5] = Tier 3, Week 3, up to 100 mg bid
# [6] = Tier 3, Week 4, up to 200 mg bid
# [7] = Tier 3, Week 5, up to 400 mg bid
compound,measurement,setting,value
"O=C1CC[C@H](C(=O)N2CCCCC2)N1 [NFC-1, fasoracetam monohydrate]",Percent of subjects with improvement in Vanderbilt ADHD score (at least 25% decrease),"Tier 1, Week 4, up to 200 mg bid",88%
same,Percent of subjects completing the dose escalation to 400 mg bid that show improvement in Vanderbilt ADHD scores (at least 25% decrease),"Tier 1, Week 5, 400 mg bid",89%
same,Percent of subjects completing the dose escalation to 400 mg bid that show robust improvement in Vanderbilt ADHD scores (at least 40% decrease),"Tier 1, Week 5, 400 mg bid",67%
same,Percent of subjects demonstrating robust improvement in Vanderbilt ADHD score (at least 40% decrease),[1],63%
same,Percent of subjects with improvement in Vanderbilt ADHD score (at least 25% decrease),[1],75%
same,Percent of subjects completing the dose escalation to 400 mg bid that show improvement in Vanderbilt ADHD scores (at least 25% decrease),"Tier 2, Week 2, 50 mg bid",20%
same,Percent of subjects completing the dose escalation to 400 mg bid that show robust improvement in Vanderbilt ADHD scores (at least 40% decrease),"Tier 2, Week 2, 50 mg bid",20%
same,Percent of subjects demonstrating robust improvement in Vanderbilt ADHD score (at least 40% decrease),"Tier 2, Week 2, 50 mg bid",14%
same,Percent of subjects with improvement in Vanderbilt ADHD score (at least 25% decrease),"Tier 2, Week 2, 50 mg bid",29%
same,Percent of subjects completing the dose escalation to 400 mg bid that show improvement in Vanderbilt ADHD scores (at least 25% decrease),"Tier 2, Week 3, 100 mg bid",20%
same,Percent of subjects completing the dose escalation to 400 mg bid that show robust improvement in Vanderbilt ADHD scores (at least 40% decrease),"Tier 2, Week 3, 100 mg bid",0%
same,Percent of subjects demonstrating robust improvement in Vanderbilt ADHD score (at least 40% decrease),[2],0%
same,Percent of subjects with improvement in Vanderbilt ADHD score (at least 25% decrease),[2],14%
same,Percent of subjects completing the dose escalation to 400 mg bid that show improvement in Vanderbilt ADHD scores (at least 25% decrease),"Tier 2, Week 4, 200 mg bid",20%
same,Percent of subjects completing the dose escalation to 400 mg bid that show robust improvement in Vanderbilt ADHD scores (at least 40% decrease),"Tier 2, Week 4, 200 mg bid",20%
same,Percent of subjects demonstrating robust improvement in Vanderbilt ADHD score (at least 40% decrease),[3],14%
same,Percent of subjects with improvement in Vanderbilt ADHD score (at least 25% decrease),[3],43%
same,Percent of subjects completing the dose escalation to 400 mg bid that show improvement in Vanderbilt ADHD scores (at least 25% decrease),"Tier 2, Week 5, 400 mg bid",80%
same,Percent of subjects completing the dose escalation to 400 mg bid that show robust improvement in Vanderbilt ADHD scores (at least 40% decrease),"Tier 2, Week 5, 400 mg bid",20%
same,Percent of subjects demonstrating robust improvement in Vanderbilt ADHD score (at least 40% decrease),[4],29%
same,Percent of subjects with improvement in Vanderbilt ADHD score (at least 25% decrease),[4],86%
same,Percent of subjects completing the dose escalation to 400 mg bid that show improvement in Vanderbilt ADHD scores (at least 25% decrease),"Tier 3, Week 2, 50 mg bid",33%
same,Percent of subjects completing the dose escalation to 400 mg bid that show robust improvement in Vanderbilt ADHD scores (at least 40% decrease),"Tier 3, Week 2, 50 mg bid",33%
same,Percent of subjects demonstrating robust improvement in Vanderbilt ADHD score (at least 40% decrease),"Tier 3, Week 2, 50 mg bid",50%
same,Percent of subjects with improvement in Vanderbilt ADHD score (at least 25% decrease),"Tier 3, Week 2, 50 mg bid",50%
same,Percent of subjects completing the dose escalation to 400 mg bid that show improvement in Vanderbilt ADHD scores (at least 25% decrease),"Tier 3, Week 3, 100 mg bid",0%
same,Percent of subjects completing the dose escalation to 400 mg bid that show robust improvement in Vanderbilt ADHD scores (at least 40% decrease),"Tier 3, Week 3, 100 mg bid",0%
same,Percent of subjects demonstrating robust improvement in Vanderbilt ADHD score (at least 40% decrease),[5],40%
same,Percent of subjects with improvement in Vanderbilt ADHD score (at least 25% decrease),[5],40%
same,Percent of subjects completing the dose escalation to 400 mg bid that show improvement in Vanderbilt ADHD scores (at least 25% decrease),"Tier 3, Week 4, 200 mg bid",0%
same,Percent of subjects completing the dose escalation to 400 mg bid that show robust improvement in Vanderbilt ADHD scores (at least 40% decrease),"Tier 3, Week 4, 200 mg bid",0%
same,Percent of subjects demonstrating robust improvement in Vanderbilt ADHD score (at least 40% decrease),[6],40%
same,Percent of subjects with improvement in Vanderbilt ADHD score (at least 25% decrease),[6],40%
same,Percent of subjects completing the dose escalation to 400 mg bid that show improvement in Vanderbilt ADHD scores (at least 25% decrease),"Tier 3, Week 5, 400 mg bid",67%
same,Percent of subjects completing the dose escalation to 400 mg bid that show robust improvement in Vanderbilt ADHD scores (at least 40% decrease),"Tier 3, Week 5, 400 mg bid",33%
same,Percent of subjects demonstrating robust improvement in Vanderbilt ADHD score (at least 40% decrease),[7],50%
same,Percent of subjects with improvement in Vanderbilt ADHD score (at least 25% decrease),[7],75%
